≈ marks a conversion by molar mass, not a printed value. Entries after “also recorded” stand apart in the source; their conditions may differ.
Experiments:
[1] = system: P. aeruginosa; assay: Broth microdilution MIC (Example 10); conditions: initial MIC testing
[2] = system: fully differentiated human airway epithelium (MUCILAIR™); assay: Acute toxicity on […] (LDH release, TEER, morphology); type: cell-based
Protocol: Controlled in vitro evaluation of BisEDT, with respect to potential cytotoxicity on fully differentiated human airway epithelium was carried out. Both solubilized and solid (powder/particulate) forms of BisEDT were evaluated for cytotoxicity by Epithelix, a contract research organization (CRO) specializing in this form of cytotoxicity evaluation utilizing a proprietary, in vitro fully differentiated human airway epithelium test system ([…]™) The […]™ system facilitated evaluation of cytotoxicity through both LDH release (from the culture medium side) and trans-epithelial electrical resistance (TEER) from the apical/air-exposed side as well as pre- and post-exposure microscopic examination for morphological changes (FIG. 13).
The assay system used in this study is Epithelix's proprietary technology […]™ […]™ is a fully differentiated and ready-to-use 3D model of human airway epithelium, constituted with primary human epithelial cells freshly isolated from nasal, tracheal or bronchial biopsies. […]™ (FIG. 24), is not only morphologically and functionally differentiated, but can also be maintained in a homeostatic state for a long period of time (Huang et al., 2009).
[…]™ is composed of basal cells, ciliated cells and mucus cells. The proportion of these various cell types is preserved compared to what one observes in vivo (Huang et al., 2011). Moreover the epithelia are started from de-differentiated cells. The cells undergo a progressive differentiation with time. After 45 days of culture, the epithelia are fully ciliated, secret mucus and are electrically tight (TEER>200 Ω.cm^2). The activity of the main epithelial ionic channels, such as CFTR, EnaC, Na/K ATPase, is preserved and the epithelia is shown to respond in a regulated and vectorial manner to the pro-inflammatory stimulus, TNF-α (Huang et al., 2011). A large panel of cytokines, chemokines and metalloproteinases has been detected in […]™ (e.g. IL-8, IL-6, GM-CSF, MMP-9, GRO-α).
BisEDT (MB-1-B3) was applied on the apical surface of […]™ during 1, 8, 24 and 48 hours (FIG. 13). The effect of 6 concentrations was studied: 0.001, 0.01, 0.1, 1, 10 and 30 μM. […] 30 μl solution at the selected concentration was applied on the apical surface of […]™. The negative control corresponds to the vehicle solution (0 μM) and untreated cultures. The positive control corresponds to 50 μl to 10% Triton X-100 diluted in a buffered saline solution. The study was run in triplicates.
During the study, inserts were maintained in a CO2 incubator (37° C., 5% CO2, 100% humidity). The following end-points were determined: • Tissue integrity monitoring: Trans-Epithelial Electrical Resistance (TEER) measurement (quantitative) at D0, D1 and D2. • Cytotoxicity monitoring: LDH test (quantitative) at D0, D1 and D2. • Morphology: cellular and tissue integrity examined under contrast microscope at D0, D1 and D2.
Three days before the experiment, the following quality controls were performed on each epithelium: • Washing: inserts were washed with 200 μl of […]™ culture medium. Washing removes accumulated mucus on the tissue surface which may interfere with the test. • Trans-Epithelial Electrical Resistance (TEER): TEER was measured to verify that all the selected inserts had tight epithelial barriers and the tissue itself was not disrupted prior to application of the test material. • Tissue morphology: each insert was inspected under a conventional inverted microscope to ensure the quality of the epithelia and determine qualitatively that cilia motion was visible. The presence of mucus was detected by the refractive aspect of the apical surface. Results
Compound BisEDT was applied on the apical surface of […]™. The effect of 5 concentrations after 1, 8,24 and 48 hours exposure was studied: 0.033, 0.33, 3.33, 33.3, 333 μg/cm^2. […]

[3] = system: B. cepcacia complex (not further speciated); assay: MIC against CF bacterial strains (Example 5); type: cell-based; conditions: beta lactam-S, TMP/SMX-S
Protocol: (§1) A range of CF-isolated strains of Mycobacterium avium and Mycobacterium abscessus were included; which allows for understanding of the activity against non-tubercular Mycobacteria (NTM). Two distinct bismuth-thiol compounds were evaluated, including BisEDT and BisBDT. […] The CF-isolates of greater clinical relevance, including both M abscessus spp. and Burkholderia spp., were both consistently found to be much more susceptible to BisEDT and BisBDT.

[4] = system: B. cepacia (cepacia complex); assay: MIC against CF bacterial strains (Example 5); type: cell-based; conditions: Burkholderia cepacia
Protocol: as §1

[5] = system: B. dolosa (cepacia complex); assay: MIC against CF bacterial strains (Example 5); type: cell-based; conditions: Burkholderia dolosa; strain BC 11, CF isolate, beta lactam-R, TMP/SMX-S, FQ-R
Protocol: as §1

[6] = system: B. multivorans (cepacia complex); assay: MIC against CF bacterial strains (Example 5); type: cell-based; conditions: Burkholderia multivorans
Protocol: as §1

[7] = system: B. cenocepacia (B cepacia complex); assay: MIC against CF bacterial strains (Example 5); conditions: Burkholderia cenocepacia
[8] = system: MABSC / M. abscessus biofilms; assay: Activity against CF-isolate biofilms; type: cell-based; conditions: AMT0130-8 (MABSC CF-isolate)
[9] = system: C. albicans; assay: Broth microdilution MIC, yeast (Example 11); type: cell-based
[10] = solid, 0.033 and 0.33 μg/cm^2, all tested time points
[11] = solution, all tested concentrations and time points

C[C@@H](O)[C@H]1C(=O)N2C(C(=O)O)=C(S[C@@H]3CN[C@H](C(=O)N(C)C)C3)[C@H](C)[C@H]12 [MEM]
MIC ([1]; P. aeruginosa isolate 103): 1 µg/mL (≈ 2.61 µM)
MIC ([1]; P. aeruginosa isolate 1497 (TOB-R, AMK-R, CIP-I, AZT-R, COL-R)): 0.06 µg/mL (≈ 0.156 µM)
MIC ([1]; P. aeruginosa isolate 1530 (TOB-R, AMK-R, CIP-R)): 0.5 µg/mL (≈ 1.3 µM)
MIC ([1]; P. aeruginosa isolate 1553 (TOB-R, AMK-R, CIP-R)): 0.5 µg/mL (≈ 1.3 µM)
MIC ([1]; P. aeruginosa isolate 6322 (MEM-R, TOB-R, AMK-R, CIP-R, AZT-R)): 16 µg/mL (≈ 41.7 µM)
MIC ([1]; P. aeruginosa isolate 6977 (MEM-I, TOB-R, CIP-R, AZT-I)): 4 µg/mL (≈ 10.4 µM)
MIC ([1]; P. aeruginosa isolate 7745 (MEM-R, CIP-R, AZT-R)): 16 µg/mL (≈ 41.7 µM)
MIC ([1]; P. aeruginosa isolate 7754 (MEM-R, TOB-R, CIP-R, AZT-I)): 32 µg/mL (≈ 83.4 µM)
MIC ([1]; P. aeruginosa isolate 7762 (MEM-I, CIP-I)): 4 µg/mL (≈ 10.4 µM)
MIC ([1]; P. aeruginosa isolate 7871 (MEM-R, AZT-I)): 8 µg/mL (≈ 20.9 µM)
MIC ([1]; P. aeruginosa isolate 7874): 1 µg/mL (≈ 2.61 µM)
MIC ([1]; P. aeruginosa isolate 7886 (MEM-R, CIP-R, AZT-R)): 32 µg/mL (≈ 83.4 µM)
MIC ([1]; P. aeruginosa isolate 8797 (MEM-R, TOB-R, AMK-R, CIP-R, AZT-R, COL-R)): 32 µg/mL (≈ 83.4 µM)
MIC ([1]; P. aeruginosa isolate 8798 (MEM-R, TOB-R, AMK-R, CIP-R, AZT-R, COL-R)): 64 µg/mL (≈ 167 µM)
MIC ([1]; P. aeruginosa isolate 9108 (CIP-R, AZT-I)): 0.5 µg/mL (≈ 1.3 µM)

C1C[S][Bi]([S]CC[S][Bi]2[S]CC[S]2)[S]1 [BisEDT, bismuth-1,2-ethanedithiol]
toxic effects (morphology, LDH release, TEER), BisEDT in solution ([2]; 0.001-30 μM (30 uM = 20.83 ug/mL) apical, 1, 8, 24, 48 hours): no toxic effects were observed; also recorded: no local toxicity
toxic effects (morphology, LDH release, TEER), particulate BisEDT in dextran ([2]; lower two concentrations (0.033, 0.33 μg/cm^2), up to 48 hours): no toxic effects were observed
TEER (tissue integrity) ([2]; solid, 1 μg/cm^2, 8, 24 and 48H): Loss of tissue integrity
LDH release (cytotoxicity) ([2]; solid, 1 μg/cm^2, 8, 24 and 48 h): time- and dose-dependent cytotoxicity
LDH release (cytotoxicity) ([2]; solid, 1 μg/cm^2, 1 hour): No significant effect
TEER (tissue integrity) ([2]; solid, 1 μg/cm^2, 1 hour): no significant effect
Morphology after exposure ([2]; solid, 1 μg/cm^2, 1 hour and 8 hour): no important morphological changes were observed
Morphology after exposure ([2]; solid, 1 μg/cm^2, 24 h): epithelial cells on 2 inserts out of 3 were dead
Morphology after exposure ([2]; solid, 1 μg/cm^2, 48 h): epithelial cells on all 3 inserts were dead
Morphology after exposure ([2]; solid, 3.33 μg/cm^2, 24 and 48 h): Cells were rounded and opaque at the periphery of inserts
Morphology after exposure ([2]; solid, 0.033 and 0.33 μg/cm^2): No morphological modifications were observed
LDH release (cytotoxicity) [2, 10]: No significant effect
TEER (tissue integrity) [2, 10]: No significant effect
cytotoxicity (LDH increase, TEER reduction) ([2]; solid, 1 and 3.33 μg/cm^2, 24 h and 48 h): induces cytotoxicity
LDH release (cytotoxicity) ([2]; solid, 3.3, 33.3 and 333 μg/cm^2, beyond 1 hour): time and dose dependent increase in LDH release; also recorded: time and dose dependent, cytotoxicity
TEER (tissue integrity) ([2]; solid, 3.33, 33.3 and 333 μg/cm^2, 8, 24 and 48H exposure): Loss of tissue integrity
toxicity (LDH, TEER, morphology) ([2]; solid, 33.3, 333 μg/cm^2): strong toxicity
Morphology after exposure ([2]; solid, 33.3 and 333 μg/cm^2, 8, 24 and 48 h): Cells were rounded and opaque on the inserts
TEER (tissue integrity) ([2]; solid, all tested doses, 1 hour exposure): no significant effect
Morphology after exposure [2, 11]: No morphology changes were observed
TEER (tissue integrity) [2, 11]: didn't show significant effect
LDH release (cytotoxicity) ([2]; solution, all tested concentrations and time-points): not altered

CC(S)C(C)S.[Bi] (stereo not shown) [BisBDT, bismuth-2,3-butanedithiol]
MIC ([3]; strain BC 9, CF isolate, FQ-R): 0.5 µg/mL
MIC ([3]; strain PC 213, CF isolate, FQ-S): 1 µg/mL
MIC ([4]; strain BC17): 8 µg/mL
MIC ([4]; strain BC 17, CF isolate, beta lactam-R, TMP/SMX-R, FQ-R): 4 µg/mL
MIC [5]: 0.5 µg/mL
MIC ([6]; strain BC 5, CF isolate, beta lactam-S, TMP/SMX-S, FQ-I): 2 µg/mL
MIC ([6]; strain BC5b): 1 µg/mL
MIC [7]: 4 µg/mL
reduction in biofilm cell viability [8]: only very modest reductions
MIC ([9]; C. albicans MMX 7055, Sensitive, 48 hr): 2, 2 μg/mL
MIC ([9]; Candida albicans, 24 h): 2 µg/mL
MIC ([9]; Candida albicans, 48 h): 2 µg/mL

From patent US11464749B2, “Bismuth-thiol compositions and methods of use” (Microbion Corporation, priority 2018, dated 2022)
